US11753407B2, “Compounds for treating spinal muscular atrophy” (PTC Therapeutics, Inc., priority 2012, dated 2023)

What was measured:
[1] = system: Smn protein in SMA patient fibroblast cells (GM03813); experiment: Smn protein assay in cultured cells (SMN HTRF); type: cell-based, human; settings: 48 hours; for Smn protein expression: SMA Type 1 patient fibroblast cells, SMN HTRF assay (FIG. 8); for EC1.5x for Smn protein expression / maximum fold (Fold) increase of Smn protein: SMA patient fibroblast cells; for EC1.5x for Smn protein expression: 7-point concentration curve, SMN HTRF, concentration producing 1.5 times Smn protein vs DMSO vehicle control; for maximum fold (Fold) increase of Smn protein: 7-point concentration data, fold relative to vehicle control
Procedure, shortened: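 Patient-derived SMA fibroblasts are plated, given compound for 48 h, then lysed in RIPA buffer with protease inhibitors. Lysate Smn is detected by an anti-SMN d2/kryptate HTRF pair incubated overnight. The normalized ΔF is divided by the vehicle ΔF to give fold change, from which EC1.5× and maximum fold are taken.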

[2] = system: gems (Smn protein nuclear foci) in SMA patient fibroblast cells (GM03813); experiment: Gems count (Smn-dependent nuclear speckle count) assay; type: cell-based, human; settings: SMA Type 1 patient cells, 48 hours, relative to DMSO (FIG. 9)
Description: The level of Smn protein directly correlates with the amount of nuclear foci, also known as gems, produced upon staining the cell with a fluorescently labeled anti-Smn antibody (Liu and Dreyfuss, EMBO J., 1996, 15:3555). Gems are multi-protein complexes whose formation is nucleated by the Smn protein and the gems count assay is used to evaluate the level of Smn protein in the cell. As described herein, the gems count assay is used to quantify the level of Smn protein in SMA patient fibroblast cells treated with a test compound.
Protocol: Cells are thawed and incubated in DMEM-10% FBS for 72 hours, then trypsinized, counted and resuspended to 100,000 cells/mL in DMEM-10% FBS. The cell suspension (2 mL) is plated in a 6-well cell culture plate with a sterile cover slip and incubated for 3 to 5 hours. Test compounds are serially diluted 3.16-fold in 100% DMSO to generate a 7-point dilution curve. […]
Cell culture medium is aspirated from the wells containing cover slips and gently washed three times with cold PBS. […] The number of gems is counted per >150 nuclei and % activation is calculated using DMSO and 10 nM bortezomib as controls. For each test compound, the cells are examined at all wavelengths to identify test compounds with inherent fluorescence.

Row | Compound | Smn protein expression [1] | EC1.5x for Smn protein expression [1] | maximum fold (Fold) increase of Smn protein [1] | gems (nuclear speckle count) [2]
1 | COc1ccc(-c2cc(=O)n3cc(N4CCNCC4)ccc3n2)cc1OC [Cpd 6, 2-(3,4-dimethoxyphenyl)-7-(piperazin-1-yl)-4H-pyrido[1,2-a]pyrimidin-4-one] | dose dependent increase in Smn protein expression | *** (an EC1.5× between >0.3 μM and ≤1 μM is indicated by three stars (***)) | **** (a fold increase between >1.5 and ≤1.65 is indicated by four stars (****)) | progressively more gems
2 | Cc1cn2nc(-c3cc(=O)n4cc(N5CCN(C)CC5)ccc4n3)cc2c(C)n1 [Cpd 170, 2-(4,6-dimethylpyrazolo[1,5-a]pyrazin-2-yl)-7-(4-methylpiperazin-1-yl)-4H-pyrido[1,2-a]pyrimidin-4-one] | dose dependent increase in Smn protein expression | **** (an EC1.5x≤0.3 μM is indicated by four stars (****)) | ***** (a fold increase >1.65 is indicated by five stars (*****)) | progressively more gems
